Laboratory results from PMC4264453 (British Journal of Cancer, 2014).
Counter-ions that a name gives are not always drawn.

Assays:
[1] = no reference given; cited from earlier work
[2] = test system: patients with advanced solid tumours; assay type: in vivo, human; settings: days 1, 8 with cisplatin 75 mg m^−2 day 1, 21-day cycle
[3] = test system: patients with advanced solid tumours; settings: 4 mg m^−2 cohort; ref Tan et al, 2009; cited from earlier work
patients = settings: ref Synold et al, 2005, cited from earlier work
[4] = Eribulin plasma pharmacokinetics; assay type: in vivo, human; settings: for AUC(0-inf) / clearance / Cmax / half-life / Vd: human, plasma, intravenous; for AUC(0-inf): AUC0-inf; for clearance: CL; for Vd: Vss
[5] = test system: patients with advanced solid malignancies; settings: ref Goel et al, 2009; cited from earlier work
[6] = 60 mg, Dose level 3: eribulin mesylate 1.2 with cisplatin 60 mg m^−2, first dose, N=4, mean (s.d.)
[7] = 60 mg, Dose level 5: eribulin mesylate 1.4 with cisplatin 60 mg m^−2, first dose, N=6, mean (s.d.)
[8] = 75 mg, Dose level 6: eribulin mesylate 1.2 with cisplatin 75 mg m^−2, first dose, N=3, mean (s.d.)

## C=C1C[C@@H]2CC[C@@]34C[C@H]5O[C@H]6[C@@H](O3)[C@H]3O[C@H](CC[C@@H]3O[C@H]6[C@H]5O4)CC(=O)C[C@@H]3[C@@H](OC)[C@@H](C[C@H](O)CN)O[C@H]3C[C@H]3O[C@@H](CC[C@@H]1O2)C[C@@H](C)C3=C [Eribulin mesylate]
[1]
  administered dose recovered in urine: < 8%
[2]
  MTD and recommended phase II dose of eribulin mesylate in combination with cisplatin: 1.2 mg m^−2
[3]
  patients experiencing febrile neutropenia (dominant DLT): all three patients
patients; lung, breast, and thyroid
  minor responses: three
patients; range 2–14 months
  median duration of stable disease: 4 months
patients
  patients exhibiting stable disease as the best response: 12 patients
patients; single agent
  dose at which grade 3 toxicity first occurred: 0.5 mg m^−2
[4]; compared to previously reported single agent data (Goel et al, 2009; Tan et al, 2009)
  effect of cisplatin co-administration on the disposition of eribulin mesylate: no apparent effect
[4]; eribulin 1.2–1.4 mg m^−2 with cisplatin
  dose proportionality of mean Cmax and AUC0-inf: did not increase in a dose-proportional manner
[4]; [6]
  AUC(0-inf): 1500 ng·h/mL
  clearance: 26.7 mL/min
  Cmax: 466 ng/mL
  Vd: 51.4 L
[4]; [7]
  AUC(0-inf): 1100 ng·h/mL
  clearance: 38.3 mL/min
  Cmax: 508 ng/mL
  Vd: 77.7 L
[4]; 60 mg, T1/2, Dose level 3: eribulin mesylate 1.2 with cisplatin 60 mg m^−2, first dose, N=4, mean (s.d.)
  half-life: 40.8 h
[4]; 60 mg, T1/2, Dose level 5: eribulin mesylate 1.4 with cisplatin 60 mg m^−2, first dose, N=6, mean (s.d.)
  half-life: 36.5 h
[4]; [8]
  AUC(0-inf): 1030 ng·h/mL
  clearance: 36.7 mL/min
  Cmax: 695 ng/mL
  Vd: 68.4 L
[4]; 75 mg, T1/2, Dose level 6: eribulin mesylate 1.2 with cisplatin 75 mg m^−2, first dose, N=3, mean (s.d.)
  half-life: 35.5 h
[5]
  principal DLT: neutropenia
